Common to all, as to assay: DTP human tumour cell line panel, 48 h
Assay [1] deals with HOP-62 NSCLC.
Assay [2] deals with SK-MEL-5 melanoma.
Assay [3] has as its system MDA-MB-435.
Assay [4] deals with COLO 205 colon.
In assay [5] the test system is OVCAR-8 ovarian.
Assay [6] relates to SK-MEL-28 melanoma.
The test system of assay [7] is UACC-257 melanoma.
Assay [8] deals with SW-620 colon.
Assay [9] relates to HT29 colon.
In assay [10] the test system is SNB-19 CNS.
The test system of assay [11] is SK-OV-3 ovarian.
The test system of assay [12] is LOX IMVI melanoma.
Assay [13] has as its system TK-10 renal.
Assay [14] deals with NCI-H522 lung.
Assay [15] relates to BT-549 breast.
Assay [16] concerns UACC-62 melanoma.
For assay [17], the system named is HCT-15 colon.
The test system of assay [18] is MOLT-4 leukemia.
The subject of assay [19] is SR leukemia.

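Cultured in 96-well plates, cells were exposed to test compound for 48 hours across five concentrations. Definition used: TGI = concentration required for complete inhibition of growth.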

`N#Cc1c(O)c(N=Nc2ccccc2F)c(=O)n2c1[nH]c1ccccc12`: the TGI in [1], in assay [2], in assay [3], in assay [4], in assay [5] and in [6] was more than 100 µM in each case. Besides, the TGI in assay [7], in [8], in [9], in assay [10], in [11] and in [12] was more than 100 µM in each case. Besides, the TGI (in general, the concentration giving total growth inhibition) in [13] is more than 100 µM; in assay [14] it was 94.9 µM; in [15], more than 100 µM; in assay [16] it was more than 100 µM; in assay [17], more than 100 µM.
On to `Nc1nc(N)c(NC(=O)CCCO)c(=O)[nH]1`, for which the TGI in [1], in assay [2], in assay [3], in assay [4], in [5] and in assay [7] was more than 100 µM in each case. Besides, the TGI in assay [8], in assay [9], in assay [10], in [11], in assay [12] and in assay [13] was more than 100 µM each time. In addition, the TGI in [14], in assay [15], in [18], in assay [16] and in [17] was more than 100 µM each time.
Take `c1ccc2c(c1)nc1n2CCCn2ccnc2-1`: the TGI in [1], in [2], in [4], in assay [5], in assay [6] and in assay [8] was more than 100 µM in each case. For the same compound, the TGI in [9] is more than 100 µM; in assay [10], more than 100 µM; in assay [11] it was 9.03 µM; in assay [12] it was more than 100 µM; in [19], more than 100 µM; in assay [14], more than 100 µM. In addition, the TGI in assay [15], in assay [18], in assay [16] and in [17] was more than 100 µM each time.
In the case of `c1cc(Sc2nc(Sc3ccncc3)nc(Sc3ccncc3)n2)ccn1`, the TGI in assay [1], in [2], in assay [3], in [4], in assay [5] and in assay [6] was more than 100 µM throughout. The TGI in [7], in assay [8], in [9], in [10], in assay [11] and in assay [12] was more than 100 µM in each case. The TGI in assay [13], in assay [14], in assay [15], in assay [18], in assay [16] and in assay [17] was more than 100 µM throughout.
On to `O=C1C(N2CCNCC2)=C(Cl)C(=O)c2ncccc21`, for which the TGI in assay [1], in assay [2], in assay [3], in assay [4], in assay [5] and in assay [6] was more than 10 µM in each case. In addition, the TGI in [7], in [8], in [9], in assay [10], in assay [11] and in assay [13] was more than 10 µM each time. The TGI in [19], in assay [15], in assay [18], in assay [16] and in [17] was more than 10 µM in each case.
Turning to `COC(=O)c1ccccc1C1CN=NC12Cc1ccc(C)c(C)c1C2=O` (stereo unspecified), the TGI in [1], in assay [2], in [3], in assay [4], in [5] and in assay [6] was more than 100 µM each time. Moreover, the TGI in assay [7], in [8], in assay [9], in assay [10], in [11] and in assay [12] was more than 100 µM in each case. In addition, the TGI in [13], in assay [14], in assay [15], in [18], in assay [16] and in assay [17] was more than 100 µM throughout.
`Cn1nc2ccc3nccc(N4CCN(CCO)CC4)c3c2n1`: the TGI in assay [1], in [2], in [3], in [4], in assay [5] and in [6] was more than 100 µM throughout. Also, the TGI in assay [7], in [8], in assay [9], in assay [10], in assay [11] and in assay [13] was more than 100 µM throughout. In addition, the TGI in [14], in assay [15], in [18], in assay [16] and in [17] was more than 100 µM each time.
In the case of `CC(=O)NC(C)(C)C1CC=C(C)CC1` (stereo unspecified), the TGI in [1], in [2], in [3], in assay [4], in assay [5] and in assay [6] was more than 100 µM each time. Further, the TGI in assay [7], in assay [8], in assay [9], in assay [10], in assay [11] and in assay [12] was more than 100 µM in each case. Further, the TGI in assay [13], in assay [19], in assay [15], in assay [18], in assay [16] and in [17] was more than 100 µM in each case.
`CNC(=O)c1n[nH]nc1Sc1c([N+](=O)[O-])ncn1C`: the TGI in assay [1], in [2], in [3], in [4], in [5] and in [6] was more than 100 µM each time. The TGI in assay [7], in [8], in assay [9], in assay [10], in [11] and in [12] was more than 100 µM each time. Besides, the TGI in assay [13], in [14], in assay [15], in [18], in assay [16] and in assay [17] was more than 100 µM each time.
Turning to `Nc1nc(N)c(C2=CCNCC2)c(=O)[nH]1`, the TGI in assay [1], in assay [2], in [3], in assay [4], in [5] and in assay [6] was more than 100 µM throughout. In addition, the TGI in assay [7], in [8], in [9], in [10], in assay [11] and in assay [19] was more than 100 µM in each case. Further, the TGI in assay [14], in assay [15], in assay [18], in [16] and in assay [17] was more than 100 µM each time.
For `CC(C)=NN/C(=N\S(=O)(=O)c1ccc(C)cc1)Nc1ccc(Cl)cc1`, the TGI in assay [1], in [2], in assay [3], in [4], in assay [5] and in assay [6] was more than 100 µM throughout. Also, the TGI in assay [7], in assay [8], in assay [9], in assay [10], in assay [12] and in assay [13] was more than 100 µM each time. Besides, the TGI in assay [14], in assay [15], in [18], in [16] and in assay [17] was more than 100 µM throughout.
For `COc1ccc(C(=O)Cn2c(C(=O)/C=C/c3ccco3)nc3ccccc32)cc1`, the TGI in assay [1] is more than 100 µM; in [2] it was more than 100 µM; in [3] it was more than 100 µM; in assay [4], 71.8 µM; in assay [6], more than 100 µM; in assay [7] it was more than 100 µM. The TGI in assay [8] is more than 100 µM; in [9], more than 100 µM; in assay [10], more than 100 µM; in assay [11], 97.4 µM; in assay [12], more than 100 µM; in assay [13], more than 100 µM. Further, the TGI in assay [19], in assay [15], in [18], in [16] and in [17] was more than 100 µM throughout.
In the case of `C=C(C)C1Cc2c(cc(O)c3c(=O)c4c(oc23)C(O)Oc2cc(OC)c(OC)cc2-4)O1` (stereo unspecified), the TGI in [1], in [3], in assay [4], in assay [5], in assay [6] and in assay [7] was more than 10 µM each time. Besides, the TGI in [8], in [9], in [10], in assay [13], in [19] and in assay [15] was more than 10 µM in each case. Moreover, the TGI in [18], in assay [16] and in [17] was more than 10 µM throughout.
On to `CC(=O)N1OC(C)CC1Nc1ccc(Br)cc1` (stereo unspecified), for which the TGI in assay [1] was 6.13 µM; in assay [2], more than 100 µM; in assay [3], more than 100 µM; in [5] it was more than 100 µM; in [8] it was more than 100 µM; in assay [9] it was more than 100 µM. The TGI in [10], in [11], in assay [13], in assay [19], in assay [15] and in assay [18] was more than 100 µM in each case. In addition, the TGI in assay [16] and in assay [17] was more than 100 µM in each case.
In the case of `COC(=O)C1(c2cc3ccccc3n2S(=O)(=O)c2ccccc2)CC2C=CC1NC2` (stereo unspecified), the TGI is 3.92 µM in assay [1]; 16.7 µM in [2]; 3.86 µM in assay [3]; 4.61 µM in [4]; 4.42 µM in assay [5]; 8.49 µM in assay [6]. The TGI in [7] is 4.93 µM; in assay [8] it was more than 21.7 µM; in [9], 4.44 µM; in assay [10], 5.98 µM; in [11], 13.2 µM; in assay [12], 3.73 µM. For the same compound, the TGI in assay [13] was determined as 4.85 µM; in [19], 0.427 µM; in assay [15] it was 6.48 µM; in assay [18] it was 4.95 µM; in assay [16], 3.31 µM; in [17], 3.93 µM.
`FC(F)(Sc1ccccn1)c1nc2ccccc2o1`: the TGI in assay [1], in [2], in assay [3], in [4], in assay [5] and in assay [6] was more than 100 µM in each case. Further, the TGI in assay [7], in assay [8], in assay [9], in [11], in [13] and in assay [19] was more than 100 µM in each case. The TGI in assay [14], in assay [15], in [18], in [16] and in assay [17] was more than 100 µM each time.

Values taken from PubChem BioAssay (NCI).
